From patent US11344567B2, “Methods of treating cancer using platanoside and isomers thereof” (SHARE GAL RESEARCH AND DEVELOPMENT LTD, priority 2018, dated 2022)

Legend:
leukemia = details: Dimas et al. 2000; cited from earlier work
[1] = tested on: methicillin-resistant Staphylococcus aureus; details: Ibrahim et al. 2009; cited from earlier work
HT-29 cell line = test: 3D spheroid tumor formation and growth; assay type: cell-based, human; details: for effect on growing tumors, treatment after spheroid formation: HT-29 spheroids, single dose 72 h after seeding, for additional 72 hours; for effect on tumor formation, treatment before tumor formation: 150 µM
Method: The spheroid formation potential of HT29 human colon cancer cell line was evaluated in 3D nonadherent culture condition. Initially the HT29 human cells were grown as a monolayer after which they were counted, re-suspended and plated with 1,500 cells per well in a 96-well plate pre-coated with a thin layer of 1.5% agarose (w/v) in McCoy's 5A medium containing 10% FBS and incubated at 37° C. in a humidified atmosphere of 5% CO2. Cell culture media was replaced every 2-3 days with fresh medium to remove cellular debris and the spheroids that were not well-formed. After the beginning of the multicellular tumor spheroid formation, the tested compounds were added at various concentrations (0.2, 0.4 and 0.6 mg/ml) and incubated for 24, 48 and 72 h. The number and diameter of colonies within each well were photographed and counted every day under the microscope (Olympus BX-51; Olympus, Hamburg, Germany), and the images of the representative fields were captured. Each sample was analyzed in triplicate, and all the experiments were performed three times. The viability of cells growing on the spheroids was measured by the APH (acid phosphatase) assay, which was performed according to manufacturer's instructions.
The cellular assays described above were performed in a monolayer system. Although monolayer systems partially reflect the microenvironment of cancer cells, there are currently more advanced culture methods that mimic in a better way the cellular interactions by the cells comprising the tumor (Freidrich, J. et. al.; Nat. Prot. 2009, 4, 309-324). […] This assay can be applied to test whether the compounds treatment is able of impairing tumors formation or alternately to test the effect of the treatment in growing tumors. HT-29 cell line was used for this model due to its capacity to form spheroids in vitro.

SMILES	effect on growing tumors, treatment after spheroid formation (HT-29 cell line)	effect on tumor formation, treatment before tumor formation (HT-29 cell line)	other results
C[C@@H]1O[C@@H](Oc2c(-c3ccc(O)cc3)oc3cc(O)cc(O)c3c2=O)[C@H](OC(=O)/C=C/c2ccc(O)cc2)[C@H](OC(=O)/C=C/c2ccc(O)cc2)[C@H]1O [Platanoside, platanoside]			anti-leukemic activity (leukemia): active as an anti-leukemic agent; anti-methicillin-resistant Staphylococcus aureus activity [1]: anti-methicillin-resistant Staphylococcus aureus
N.N.O=C([O-])C1(C(=O)[O-])CCC1.[Pt+2] [carboplatin]	didn't generate any effect		
CCc1c2c(nc3ccc(OC(=O)N4CCC(N5CCCCC5)CC4)cc13)-c1cc3c(c(=O)n1C2)COC(=O)[C@]3(O)CC [irinotecan]	didn't generate any effect		
O=C1C[C@@H](c2ccc(O)cc2)Oc2cc(O)cc(O)c21 [naringenin]		no effect	
O=C(O)/C=C/c1ccc(O)cc1 [p-coumaric acid]		no effect	
